We go through 4 compounds from patent publication US7629310B2, “RhoB as a suppressor of cancer cell growth, cell transformation, and metastasis” (University of South Florida, priority 2000, dated 2009).

Data set [1] relates to RhoB promoter. As to the kind of experiment: RhoB promoter transcriptional activity (luciferase reporter) in NIH3T3 cells. The data set is classed as cell-based. An excerpt: Gene Constructs and RhoB Promoter Transcriptional Activity Assay. Constitutively active H-Ras61L, K-RasV12, N-RasV12, and dominant negative […]-Ras were kind gifts from Dr. Channing Der (University of North Carolina) (Khosravi-Far, R. et al., Mol Cell Biol, 1995, 15:6443-53; Quilliam, L. A. et al., Mol Cell Biol, 1994, 14:1113-21). Wild-type RhoA and RhoB were subcloned into hemaglutinin (HA)-tagged pcDNA3 (INVITROGEN). The orientation and the sequences of these genes were confirmed by DNA sequencing facilities at the H. Lee Moffitt Cancer Center, Tampa, Fla. RhoB promoter construct pGEI was kindly provided by Dr Y. Monden (Banyu Tsukuba Research, Japan) (Nakamura et al., 1996). pCMV-β-galactosidase vector was purchased from INVITROGEN. The plasmid containing CA-, DN-PI3K, Mek and Akt were kindly provided by Dr. Julie Y. Djeu (H. Lee Moffitt Cancer and Research Institute, Tampa, Fla.) (Jiang, K. et al., Blood, 2003, 101:236-44). β-galactosidase activity and luciferase assay kits were purchased from PROMEGA Corporation, Madison, Wis. The serum response element (SRE) reporter was provided by Dr. Richard Jove, H. Lee Moffitt Cancer and Research Institute, Tampa, Fla. (Turkson, J. et al., Mol Cell Biol, 1999, 19:7519-28). […] Richard Jove, Oncology program, H. Lee Moffitt Cancer and Research Institute, Tampa, Fla. (Turkson, J. et al., Mol Cell Biol, 1999, 19:7519-28). […] (Luetteke, N. C. et al., Genes Dev, 1994, 8:399-413). DNA transfection was performed with the standard lipofectamine protocol (INVITROGEN). […] After transfection the cells were grown for another 36-48 h. Cells were then washed twice with PBS and lyzed in Promega Passive Lysis Buffer. Aliquots of the lysates were then used to measure the luciferase and β-galactosidase activities. The luciferase values were first divided by β-galactosidase values. The RhoB promoter transcriptional activity was determined by dividing the luciferase/β-Gal values from oncogene-transfected cells by those from pcDNA3-transfected cells. […] All the samples were performed in triplicate and the averages of 3 independent experiments were reported here.

The subject of data set [2] is RhoB promoter. As to the kind of experiment: RhoB promoter transcriptional activity (luciferase reporter) in human cancer cell lines A-549, Panc-1, C33A. The data set is classed as cell-based. The following applies: for RhoB Promoter transcriptional activity (% inhibition): vs pcDNA3 control. An excerpt:
Gene Constructs and RhoB Promoter Transcriptional Activity Assay. Constitutively active H-Ras61L, K-RasV12, N-RasV12, and dominant negative […]-Ras were kind gifts from Dr. Channing Der (University of North Carolina) (Khosravi-Far, R. et al., Mol Cell Biol, 1995, 15:6443-53; Quilliam, L. A. et al., Mol Cell Biol, 1994, 14:1113-21). Wild-type RhoA and RhoB were subcloned into hemaglutinin (HA)-tagged pcDNA3 (INVITROGEN). The orientation and the sequences of these genes were confirmed by DNA sequencing facilities at the H. Lee Moffitt Cancer Center, Tampa, Fla. RhoB promoter construct pGEI was kindly provided by Dr Y. Monden (Banyu Tsukuba Research, Japan) (Nakamura et al., 1996). pCMV-β-galactosidase vector was purchased from INVITROGEN. The plasmid containing CA-, DN-PI3K, Mek and Akt were kindly provided by Dr. Julie Y. Djeu (H. Lee Moffitt Cancer and Research Institute, Tampa, Fla.) (Jiang, K. et al., Blood, 2003, 101:236-44). β-galactosidase activity and luciferase assay kits were purchased from PROMEGA Corporation, Madison, Wis. The serum response element (SRE) reporter was provided by Dr. Richard Jove, H. Lee Moffitt Cancer and Research Institute, Tampa, Fla. […] Richard Jove, Oncology program, H. Lee Moffitt Cancer and Research Institute, Tampa, Fla. […] Human EGFR, ErbB2 cDNA construct were kindly provided by Dr. Noreen Luetteke, H. Lee Moffitt Cancer and Research Institute, Tampa, Fla. (Luetteke, N. C. et al., Genes Dev, 1994, 8:399-413). DNA transfection was performed with the standard lipofectamine protocol (INVITROGEN). Briefly, cells were plated in 60-mm plates, pGEI plasmid was used at 2 μg per plate, whereas all the other plasmids were used at 0.1-1.0 μg per plate. After transfection the cells were grown for another 36-48 h. Cells were then washed twice with PBS and lyzed in Promega Passive Lysis Buffer. Aliquots of the lysates were then used to measure the luciferase and β-galactosidase activities. The luciferase values were first divided by β-galactosidase values. The RhoB promoter transcriptional activity was determined by dividing the luciferase/β-Gal values from oncogene-transfected cells by those from pcDNA3-transfected cells. […] All the samples were performed in triplicate and the averages of 3 independent experiments were reported here. Proteins that induce malignant transformation and those that suppress tumorigenesis most likely antagonize each other's functions. […] Du, W. et al., Mol Cell Biol, 1999, 19:1831-40; Du, W. and Prendergast, G. C., Cancer Res, 1999, 59:5492-6). An objective of the experiments described herein was to determine whether oncogenes that are prevalent in human cancers suppress RhoB expression, and whether RhoB antagonizes the ability of these oncogenes to induce malignant transformation. To this end, the effects of several oncogenes on RhoB promoter transcriptional activity were first evaluated. NIH3T3 cells and human cancer cell lines derived from lung (A-549), pancreatic (Panc-1) and cervical (C33A) tumors were transiently transfected with pcDNA3 empty vectors or pcDNA3 constructs containing various oncogenes along with full length RhoB promoter firefly luciferase reporter and SRE-renilla luciferase reporter as well as a β-gal reporter for controlling transfection efficiency as described in the Materials and Methods section.
For orientation: A reporter such as luciferase makes a cellular process visible.

For the next data set, the system named is RhoB protein levels. Nature of the data set: RhoB protein level by Western blotting in PANC-1 cells. The settings on record: treated 48 hours (FIG. 7E). In kind it is cell-based, human. Here is the method: H-Ras/3T3 cells were treated with (FIG. 7A) different concentrations of LY294002 for 48 hrs or (FIG. 7B) LY294002 (20 μM) for different time intervals. The cells were then lysed and analyzed for RhoB and RhoA protein levels by Western Blotting with anti-RhoB and anti-RhoA; the same filter was re-probed with antiβ-actin for loading control. NIH3T3 cells (FIG. 7C) were transiently transfected with various genes as indicated for 24 hours; and then treated with either DMSO vehicle or LY294002 or 5-FU alone or in combination for another 48 hours. The cells were analyzed for RhoB, RhoA, and β-actin protein levels as described above. […] The cells were analyzed for RhoB and RhoA protein levels by Western Blotting with anti-RhoB and anti-RhoA; the same filter was re-probed with anti-β-actin, anti-HA and anti-pan-Akt antibodies. PANC-1 cells (FIG. 7E) and A549 cells (FIG. 7F) were treated PD, LY or 5-FU as indicated for 48 hours; then analyzed for RhoB and RhoA protein levels by Western Blotting as described above.
Western Blot Analysis. […] Antigen-bound antibody was detected by enhanced chemiluminescence Western blotting kit ([…] […] BIOTECH), Piscataway, N.J.). β-actin was detected as an internal loading control.
For orientation: In western blotting, separated proteins are transferred to a membrane and probed.

Data set [3] relates to RhoB promoter. Nature of the data set: RhoB promoter transcriptional activity in H-Ras/3T3 cells. The data set is classed as cell-based. The following applies: treated 12 hours (FIG. 6B). An excerpt:
The cell lysates were processed as in FIGS. 5A-5D. […] The cell lysates were processed as in FIGS. 5A-5D. […] The cell lysates were processed as in FIGS. 5A-5D. Gene Constructs and RhoB Promoter Transcriptional Activity Assay. Constitutively active H-Ras61L, K-RasV12, N-RasV12, and dominant negative […]-Ras were kind gifts from Dr. Channing Der (University of North Carolina) (Khosravi-Far, R. et al., Mol Cell Biol, 1995, 15:6443-53; Quilliam, L. A. et al., Mol Cell Biol, 1994, 14:1113-21). Wild-type RhoA and RhoB were subcloned into hemaglutinin (HA)-tagged pcDNA3 (INVITROGEN). The orientation and the sequences of these genes were confirmed by DNA sequencing facilities at the H. Lee Moffitt Cancer Center, Tampa, Fla. RhoB promoter construct pGEI was kindly provided by Dr Y. Monden (Banyu Tsukuba Research, Japan) (Nakamura et al., 1996). pCMV-β-galactosidase vector was purchased from INVITROGEN. The plasmid containing CA-, DN-PI3K, Mek and Akt were kindly provided by Dr. Julie Y. Djeu (H. Lee Moffitt Cancer and Research Institute, Tampa, Fla.) (Jiang, K. et al., Blood, 2003, 101:236-44). β-galactosidase activity and luciferase assay kits were purchased from PROMEGA Corporation, Madison, Wis. […] The RhoB promoter transcriptional activity was determined by dividing the luciferase/β-Gal values from oncogene-transfected cells by those from pcDNA3-transfected cells. […]

For the next data set, the system named is NIH3T3 cells. As to the kind of experiment: 5-FU-induced apoptosis (Annexin V, flow cytometry) in NIH3T3 cells. The following applies: NIH3T3, transfected 24 hours then 5-FU 48 hours (FIG. 10A); control 28-30%. The data set is classed as cell-based. As for the experimental part: Apoptosis Assay. Cells were collected by trypsinization, washed in wash buffer and stained with Annexin V and 7-AAD according to manufacturer's recommendation (PharMingen, San Diego, Calif.). Data acquisition and analysis was performed by the Flow Cytometry Core Facility at the H. Lee Moffitt Cancer Center (Tampa, Fla.). All the samples were performed in duplicate and a representative of 3 independent experiments were reported here.
Background: A flow cytometer gives signals particle by particle.

On to ErbB2: human ErbB2 cDNA construct, for which the “inhibition of RhoB promoter activity” value with RhoB promoter [1] (NIH3T3, in the presence of N17-H-Ras) came to 18%. In addition, the “RhoB Promoter transcriptional activity (% inhibition)” value with RhoB promoter [1] (NIH3T3, transiently transfected 36 hrs, vs pcDNA3 control) was 79 ± 3.9%; in the data set on RhoB promoter [2] (A549, transiently transfected 36 hrs), 74 ± 4.3%; in the data set on RhoB promoter [2] (C33A, transiently transfected 36 hrs), 69 ± 3.6%; in the data set on RhoB promoter [2] (PANC1, transiently transfected 36 hrs), 68 ± 4.1%.

As to `O=c1cc(N2CCOCC2)oc2c(-c3ccccc3)cccc12` [LY294002], in the data set on RhoB promoter [2] (PANC-1 and A-549 cells expressing mutated K-Ras), the “5-FU induction of RhoB promoter activity” value is reported as “sensitize these cells to 5-FU induction of RhoB promoter activity”. Moreover, the “induction of RhoB protein levels” value in the data set with RhoB protein levels is reported as 8 fold. Besides, the “induction of RhoB promoter activity” value in the data set on RhoB promoter [3] was found to be 1.7 fold.

In the case of “Akt: Akt expression construct transfected into NIH3T3 cells”, the “5-FU apoptotic rate after transfection” value in the data set with NIH3T3 cells came out at 17%.

For `COc1cccc(-c2cc(=O)c3ccccc3o2)c1N` [PD98059], the “induction of RhoB protein levels” value with RhoB protein levels is listed as “no induction”.
